Test results taken from patent EP0738727B1, “1,4-BENZOXAZINE-2-ACETIC ACID COMPOUND, PROCESS FOR PRODUCING THE SAME, AND USE THEREOF” (Senju Pharmaceutical Co., Ltd., priority 1994, dated 1995).
Marks after values point to notes of the source that are not given here.

Experiments:
[1] = target: T1, aldose reductase (Sus scrofa, UniProt P80276); test: Aldose reductase inhibitory action (method of S. Hayman et al., absorbance change at 340 nm); format: biochemical; conditions: swine lens enzyme, 3 mM dl-glyceraldehyde, 0.1 mM NADPH, pH 6.2, 25°C
T1 construct: swine lenses freeze-stored at -80°C were homogenized with distilled water and centrifuged at 10,000 G for 15 minutes; from tissue; host or cells: swine lens
Experimental: An aldose reductase enzyme standard product was prepared from swine lens according to the method of S. Hayman et al. [Journal of Biological Chemistry, 240, 877-882 (1965)]. That is, swine lenses freeze-stored at -80°C were homogenized with distilled water and centrifuged at 10,000 G for 15 minutes. The supernatant was prepared into a 40% ammonium sulfate solution and subjected to centrifugation at 10,000 G for 10 minutes. The supernatant obtained was dialyzed overnight against a 0.05 M sodium chloride solution to give a dialyzed solution, which was used as an enzyme standard product.
The activity of aldose reductase was determined by the above-mentioned method of S. Hayman et al. That is, the above-mentioned enzyme solution (25 µl) and a drug solution (25 µl) dissolved in 1% DMSO at various concentrations were added to a 40 mM phosphate buffer (200 µl, pH 6.2) containing, at final concentrations, 0.4 M lithium sulfate, 0.1 mM NADPH (reduced type nicotinamide adenine dinucleotide phosphate) and 3 mM dl-glyceraldehyde as a substrate. The mixture was allowed to react at 25°C for 2 minutes and the changes in absorbance at 340 nm were determined with COBAS FARA II (manufactured by Roche). The changes in absorbance when 1% DMSO was added instead of the drug solution was taken as 100%, based on which 50% inhibition concentration (IC50) was calculated and shown in Table 1. […] The test drug number indicates the example number to be mentioned later. IC50 (M) means the concentration of the drug at which the aldose reductase activity is inhibited by 50% Table 1

[2] = tested on: sorbitol accumulation in tissues; test: Inhibitory action on sorbitol accumulation in tissues of rats with experimental (streptozotocin) diabetes; format: in vivo, Sprague-Dawley rats; conditions: measured 3 hours after final administration, control taken as 100%; for Sorbitol accumulation (%) nerve: sciatic nerve
Experimental: Sprague-Dawley rats (male, 6 weeks old, 5-6 per group) were fasted for 18 hours and injected with streptozotocin (SIGMA, 60 mg/kg) via the tail vein under etherization to prepare rats with diabetes.
The various compounds were orally administered at 4, 8 and 24 hours after the injection of streptozotocin, at 10 mg/kg or 30 mg/kg as a 0.5% carboxymethylcellulose suspension. During the administrations, the rats were raised under free access to feed and water, and the sorbitol content of the tissues (erythrocytes, sciatic nerve, lens) was determined 3 hours after the final administration, according to the enzyme method of H.Y. Bergmeyer et al. [Methods of Enzymatic Analysis, vol. 3, 1323-1330 (1974)] with the use of SDH (sorbitol dehydrogenase) and NAD (β-nicotinamide adenine dinucleotide). The results (sorbitol accumulation) are expressed in percent (%) relative to the value of a control group administered with 0.5% carboxymethylcellulose solution (solvent) instead of the drug, which was taken as 100%.

[3] = tested on: ICR mice; test: Acute toxicity after a single oral dose in mice; format: in vivo; conditions: 300 mg/kg orally, male ICR mice, observation for 14 days
Experimental: Normal ICR mice (male, 7 weeks old, 5 per group) were fasted for 18 hours and the compound (300 mg/kg) of Example 33 was orally administered as a 0.5% carboxymethylcellulose suspension. To the control group, a 0.5% carboxymethylcellulose solution alone was orally administered, and observation was continued for 14 days thereafter, during which period the mice were allowed to take feed and water freely.

[4] = 10 mg/kg orally at 4, 8 and 24 hours after streptozotocin
[5] = 30 mg/kg orally at 4, 8 and 24 hours after streptozotocin

| IC50 [1] | Structure (SMILES) | Sorbitol accumulation (%) erythrocytes [2, 4] | Sorbitol accumulation (%) lens [2, 4] | Sorbitol accumulation (%) nerve [2, 4] | other results |
| --- | --- | --- | --- | --- | --- |
| 9.9 nM | O=C(O)CC1Oc2ccccc2N(Cc2nc3c(Cl)c(Cl)ccc3s2)C1=O (stereo not drawn) [Example 34, 2-[4-(4,5-dichlorobenzothiazol-2-yl)methyl-3,4-dihydro-3-oxo-2H-1,4-benzoxazin-2-yl]acetic acid] | – | – | – | – |
| – | O=C(O)CC1Oc2ccc(Cl)cc2N(Cc2nc3c(F)c(F)cc(F)c3s2)C1=O (stereo not drawn) [Example 38, 2-[6-chloro-4-(4,5,7-trifluorobenzothiazol-2-yl)methyl-3,4-dihydro-3-oxo-2H-1,4-benzoxazin-2-yl]acetic acid] | 24.6** % | 44.1** % | 0.0** % | – |
| 9.9 nM | O=C(O)CC1Oc2ccc(F)cc2N(Cc2nc3cc(F)cc(F)c3s2)C1=O (stereo not drawn) [Example 27, 2-[6-fluoro-4-(5,7-difluorobenzothiazol-2-yl)methyl-3,4-dihydro-3-oxo-2H-1,4-benzoxazin-2-yl]acetic acid] | – | – | – | – |
| – | O=C(O)CC1Oc2ccccc2N(Cc2nc3ccc(F)c(F)c3s2)C1=O (stereo not drawn) [Example 33, 2-[4-(6,7-difluorobenzothiazol-2-yl)methyl-3,4-dihydro-3-oxo-2H-1,4-benzoxazin-2-yl]acetic acid] | – | – | – | death [3]: no case of death; weights ([3]; compared with control group): showed transition in the same manner as in the control group |
| – | Cc1ccc2c(c1)OC(CC(=O)O)C(=O)N2Cc1nc2cc(F)cc(F)c2s1 (stereo not drawn) [Example 43, 2-[4-(5,7-difluorobenzothiazol-2-yl)methyl-7-methyl-3,4-dihydro-3-oxo-2H-1,4-benzoxazin-2-yl]acetic acid] | 34.9** % | 100.9% | 60.6** % | – |
| – | O=C(O)CC1Oc2ccccc2N(Cc2nc3c(F)c(F)cc(F)c3s2)C1=O (stereo not drawn) [Example 30, 2-[4-(4,5,7-trifluorobenzothiazol-2-yl)methyl-3,4-dihydro-3-oxo-2H-1,4-benzoxazin-2-yl]acetic acid] | 22.2** % | 45.2** % | 1.0** % | – |
| 9.2 nM | Cc1ccc2c(c1)N(Cc1nc3c(F)c(F)ccc3s1)C(=O)C(CC(=O)O)O2 (stereo not drawn) [Example 36, 2-[4-(4,5-difluorobenzothiazol-2-yl)methyl-6-methyl-3,4-dihydro-3-oxo-2H-1,4-benzoxazin-2-yl]acetic acid] | 17.3** % | 60.7* % | 23.5** % | – |
| – | O=C(O)CC1Oc2ccc(F)cc2N(Cc2nc3c(Cl)c(Cl)ccc3s2)C1=O (stereo not drawn) [Example 28, 2-[4-(4,5-dichlorobenzothiazol-2-yl)methyl-6-fluoro-3,4-dihydro-3-oxo-2H-1,4-benzoxazin-2-yl]acetic acid] | 16.3** % | 89.3% | 56.0** % | – |
| 9.9 nM | O=C(O)CC1Oc2ccc(Cl)cc2N(Cc2nc3c(F)c(F)ccc3s2)C1=O (stereo not drawn) [Example 39, 2-[6-chloro-4-(4,5-difluorobenzothiazol-2-yl)methyl-3,4-dihydro-3-oxo-2H-1,4-benzoxazin-2-yl]acetic acid] | – | – | – | – |
| 9.6 nM | O=C(O)CC1Oc2ccc(F)cc2N(Cc2nc3c(F)c(F)ccc3s2)C1=O (stereo not drawn) [Example 26, 2-[6-fluoro-4-(4,5-difluorobenzothiazol-2-yl)methyl-3,4-dihydro-3-oxo-2H-1,4-benzoxazin-2-yl]acetic acid] | – | – | – | – |
| 9.1 nM | Cc1ccc2c(c1)N(Cc1nc3c(F)c(F)cc(F)c3s1)C(=O)C(CC(=O)O)O2 (stereo not drawn) [Example 35, 2-[4-(4,5,7-trifluorobenzothiazol-2-yl)methyl-6-methyl-3,4-dihydro-3-oxo-2H-1,4-benzoxazin-2-yl] acetic acid] | – | – | – | – |
| – | O=C(O)CC1Oc2ccccc2N(Cc2nc3cc(F)cc(F)c3s2)C1=O (stereo not drawn) [Example 32, 2-[4-(5,7-difluorobenzothiazol-2-yl)methyl-3,4-dihydro-3-oxo-2H-1,4-benzoxazin-2-yl]acetic acid] | 27.2** % | 39.1** % | 11.4** % | – |
| – | CC(C)c1cccc2c1OC(C(C)C)C(=S)N2CC(=O)O (stereo not drawn) [Compound A, 3,4-dihydro-2,8-diisopropyl-3-thioxo-2H-1,4-benzoxazine-4-acetic acid, reference compound] | – | – | – | Sorbitol accumulation (%) erythrocytes [2, 5]: 53.7* %; Sorbitol accumulation (%) lens [2, 5]: 87.3%; Sorbitol accumulation (%) nerve [2, 5]: 54.9** % |
| 8.6 nM | O=C(O)CC1Oc2ccccc2N(Cc2nc3cc(Cl)ccc3s2)C1=O (stereo not drawn) [Example 25, 2-[4-(5-chlorobenzothiazol-2-yl)methyl-3,4-dihydro-3-oxo-2H-1,4-benzoxazin-2-yl]acetic acid] | – | – | – | – |
| – | O=C(O)CC1Oc2cc(F)ccc2N(Cc2nc3c(F)c(F)cc(F)c3s2)C1=O (stereo not drawn) [Example 44, 2-[7-fluoro-4-(4,5,7-trifluorobenzothiazol-2-yl)methyl-3,4-dihydro-3-oxo-2H-1,4-benzoxazin-2-yl]acetic acid] | 25.9** % | 52.0** % | 4.7 ** % | – |
| – | O=C(O)CC1Oc2cc(F)ccc2N(Cc2nc3c(F)c(F)ccc3s2)C1=O (stereo not drawn) [Example 45, 2-[7-fluoro-4-(4,5-difluorobenzothiazol-2-yl)methyl-3,4-dihydro-3-oxo-2H-1,4-benzoxazin-2-yl]acetic acid] | 32.4** % | 71.8* % | 56.8** % | – |
